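1) Cells in 96-well plates. 2) Compound, 48 h, 5 concentrations. 3) Linear interpolation between surrounding doses. 4) Unreached endpoint = highest concentration. GI50: concentration for 50% inhibition of growth.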 The source made the active and inactive calls. Cut-off read from the data, not from the text of the source: active = GI50 up to about 1.1 µM and inactive = higher.
Columns and labels:
Experiment in all cases: inhibition of tumour cell growth, NCI panel, 48 h
[1] = system: 786-0
[2] = system: A498
[3] = system: A549
[4] = system: ACHN
[5] = system: BT-549
[6] = system: CAKI-1
[7] = system: CCRF-CEM
[8] = system: COLO 205
[9] = system: DU-145
[10] = system: EKVX
[11] = system: HCC 2998
[12] = system: HCT-116
[13] = system: HCT-15
[14] = system: HL-60
[15] = system: HOP-62
[16] = system: HOP-92
[17] = system: HT-29
[18] = system: Hs-578T
[19] = system: IGROV-1
[20] = system: K562
[21] = system: KM12
[22] = system: LOX IMVI
[23] = system: M14
[24] = system: MCF7
[25] = system: MDA-MB-231
[26] = system: MDA-MB-435
[27] = system: MDA-N
[28] = system: MOLT-4
[29] = system: Malme-3M
[30] = system: NCI-H226
[31] = system: NCI-H23
[32] = system: NCI-H460
[33] = system: NCI-H522
[34] = system: NCI/ADR-RES
[35] = system: OVCAR-3
[36] = system: OVCAR-4
[37] = system: OVCAR-5
[38] = system: OVCAR-8
[39] = system: PC-3
[40] = system: RPMI-8226
[41] = system: RXF 393
[42] = system: SF-268
[43] = system: SF-295
[44] = system: SF-539
[45] = system: SK-MEL-28
[46] = system: SK-MEL-2
[47] = system: SK-MEL-5
[48] = system: SK-OV-3
[49] = system: SN12C
[50] = system: SNB-19
[51] = system: SNB-75
[52] = system: SW-620
[53] = system: T47D
[54] = system: TK-10
[55] = system: U-251
[56] = system: UACC-257
[57] = system: UACC-62
[58] = system: UO-31

COc1ccccc1/C=C\c1cnnc2ccccc12
GI50 [1]: > 10 µM (inactive)
GI50 [2]: > 10 µM (inactive)
GI50 [3]: > 10 µM (inactive)
GI50 [4]: > 10 µM (inactive)
GI50 [5]: > 10 µM (inactive)
GI50 [6]: > 10 µM (inactive)
GI50 [7]: 6.59 µM (inactive)
GI50 [8]: > 10 µM (inactive)
GI50 [9]: > 10 µM (inactive)
GI50 [10]: 8.79 µM (inactive)
GI50 [11]: > 10 µM (inactive)
GI50 [12]: 5.77 µM (inactive)
GI50 [13]: > 10 µM
GI50 [14]: > 10 µM (inactive)
GI50 [15]: > 10 µM (inactive)
GI50 [16]: 0.0372 µM (active)
GI50 [17]: 3.77 µM (inactive)
GI50 [18]: > 10 µM (inactive)
GI50 [19]: 8.63 µM (inactive)
GI50 [20]: 4.7 µM (inactive)
GI50 [21]: > 10 µM (inactive)
GI50 [22]: 3.66 µM (inactive)
GI50 [23]: > 10 µM (inactive)
GI50 [24]: 3.56 µM (inactive)
GI50 [25]: > 10 µM (inactive)
GI50 [26]: 3.49 µM (inactive)
GI50 [27]: 3.33 µM (inactive)
GI50 [28]: 6.24 µM (inactive)
GI50 [29]: > 10 µM (inactive)
GI50 [30]: > 10 µM (inactive)
GI50 [31]: > 10 µM (inactive)
GI50 [32]: > 10 µM (inactive)
GI50 [33]: > 10 µM (inactive)
GI50 [34]: > 10 µM (inactive)
GI50 [35]: > 10 µM (inactive)
GI50 [36]: > 10 µM (inactive)
GI50 [37]: > 10 µM (inactive)
GI50 [38]: > 10 µM (inactive)
GI50 [39]: > 10 µM (inactive)
GI50 [40]: > 10 µM (inactive)
GI50 [41]: > 10 µM (inactive)
GI50 [42]: > 10 µM (inactive)
GI50 [43]: > 10 µM (inactive)
GI50 [44]: > 10 µM (inactive)
GI50 [45]: > 10 µM (inactive)
GI50 [46]: > 10 µM (inactive)
GI50 [47]: 6.71 µM (inactive)
GI50 [48]: > 10 µM (inactive)
GI50 [49]: > 10 µM (inactive)
GI50 [50]: > 10 µM (inactive)
GI50 [51]: 9.02 µM (inactive)
GI50 [52]: > 10 µM (inactive)
GI50 [53]: > 10 µM (inactive)
GI50 [54]: > 10 µM (inactive)
GI50 [55]: > 10 µM (inactive)
GI50 [56]: > 10 µM (inactive)
GI50 [57]: > 10 µM (inactive)

CO/C(N)=C(C#N)/N=C/c1ccsc1
GI50 [1]: 23.9 µM (inactive)
GI50 [2]: > 100 µM (inactive)
GI50 [3]: > 100 µM (inactive)
GI50 [4]: > 100 µM (inactive)
GI50 [5]: 20.4 µM (inactive)
GI50 [6]: 37.2 µM (inactive)
GI50 [7]: 24 µM (inactive)
GI50 [8]: 36.6 µM (inactive)
GI50 [9]: 42.4 µM (inactive)
GI50 [10]: 54.6 µM (inactive)
GI50 [11]: > 100 µM (inactive)
GI50 [12]: 40 µM (inactive)
GI50 [13]: 34.3 µM
GI50 [14]: 13.1 µM (inactive)
GI50 [15]: > 100 µM (inactive)
GI50 [16]: 34.1 µM (inactive)
GI50 [17]: 40.7 µM (inactive)
GI50 [18]: 52.2 µM (inactive)
GI50 [19]: 52.6 µM (inactive)
GI50 [20]: 30.4 µM (inactive)
GI50 [21]: 60.7 µM (inactive)
GI50 [22]: 18.6 µM (inactive)
GI50 [23]: 29 µM (inactive)
GI50 [24]: 32.5 µM (inactive)
GI50 [25]: 32.7 µM (inactive)
GI50 [26]: 36.2 µM (inactive)
GI50 [27]: 28.5 µM (inactive)
GI50 [28]: 47.6 µM (inactive)
GI50 [29]: 40.6 µM (inactive)
GI50 [30]: > 100 µM (inactive)
GI50 [31]: 37.3 µM (inactive)
GI50 [32]: > 100 µM (inactive)
GI50 [33]: 23.9 µM (inactive)
GI50 [34]: > 100 µM (inactive)
GI50 [35]: 30.6 µM (inactive)
GI50 [36]: > 100 µM (inactive)
GI50 [37]: > 100 µM (inactive)
GI50 [38]: 59 µM (inactive)
GI50 [39]: 81.1 µM (inactive)
GI50 [41]: 31.8 µM (inactive)
GI50 [42]: 44.7 µM (inactive)
GI50 [43]: > 100 µM (inactive)
GI50 [44]: 26.2 µM (inactive)
GI50 [45]: 85.5 µM (inactive)
GI50 [46]: 37.3 µM (inactive)
GI50 [47]: 28.2 µM (inactive)
GI50 [48]: > 100 µM (inactive)
GI50 [49]: > 100 µM (inactive)
GI50 [50]: > 100 µM (inactive)
GI50 [51]: 56 µM (inactive)
GI50 [52]: 53.2 µM (inactive)
GI50 [53]: 68.4 µM (inactive)
GI50 [54]: > 100 µM (inactive)
GI50 [55]: 40 µM (inactive)
GI50 [56]: 41.9 µM (inactive)
GI50 [57]: 33.4 µM (inactive)
GI50 [58]: > 100 µM (inactive)

CC(=O)NCCCCNCCCNC(C)=O
GI50 [1]: > 100 µM (inactive)
GI50 [2]: > 100 µM (inactive)
GI50 [3]: > 100 µM (inactive)
GI50 [4]: > 100 µM (inactive)
GI50 [5]: > 100 µM (inactive)
GI50 [6]: > 100 µM (inactive)
GI50 [7]: > 100 µM (inactive)
GI50 [8]: > 100 µM (inactive)
GI50 [9]: > 100 µM (inactive)
GI50 [10]: > 100 µM (inactive)
GI50 [11]: > 100 µM (inactive)
GI50 [12]: > 100 µM (inactive)
GI50 [13]: > 100 µM
GI50 [14]: > 100 µM (inactive)
GI50 [16]: > 100 µM (inactive)
GI50 [17]: > 100 µM (inactive)
GI50 [18]: > 100 µM (inactive)
GI50 [19]: > 100 µM (inactive)
GI50 [20]: > 100 µM (inactive)
GI50 [21]: > 100 µM (inactive)
GI50 [22]: > 100 µM (inactive)
GI50 [23]: > 100 µM (inactive)
GI50 [24]: > 100 µM (inactive)
GI50 [25]: > 100 µM (inactive)
GI50 [26]: > 100 µM (inactive)
GI50 [27]: > 100 µM (inactive)
GI50 [28]: > 100 µM (inactive)
GI50 [29]: > 100 µM (inactive)
GI50 [30]: > 100 µM (inactive)
GI50 [31]: > 100 µM (inactive)
GI50 [32]: > 100 µM (inactive)
GI50 [33]: > 100 µM (inactive)
GI50 [34]: > 100 µM (inactive)
GI50 [36]: > 100 µM (inactive)
GI50 [37]: > 100 µM (inactive)
GI50 [38]: > 100 µM (inactive)
GI50 [40]: > 100 µM (inactive)
GI50 [41]: > 100 µM (inactive)
GI50 [42]: > 100 µM (inactive)
GI50 [43]: > 100 µM (inactive)
GI50 [44]: > 100 µM (inactive)
GI50 [45]: > 100 µM (inactive)
GI50 [47]: > 100 µM (inactive)
GI50 [48]: > 100 µM (inactive)
GI50 [49]: > 100 µM (inactive)
GI50 [50]: > 100 µM (inactive)
GI50 [51]: > 100 µM (inactive)
GI50 [52]: > 100 µM (inactive)
GI50 [53]: > 100 µM (inactive)
GI50 [54]: > 100 µM (inactive)
GI50 [55]: > 100 µM (inactive)
GI50 [56]: > 100 µM (inactive)
GI50 [57]: > 100 µM (inactive)
GI50 [58]: > 100 µM (inactive)

Source: ChEMBL document CHEMBL1201862, “PubChem BioAssay data set” (2004)
